Test systems include OVCAR-3; UACC-257; CCRF-CEM; MOLT-4; SF-268; HL-60; EKVX; HCT-15; OVCAR-5; SF-539; HOP-62; COLO 205; NCI-H226; SNB-19; OVCAR-4; Malme-3M; SR.
Assay in all cases: growth of human tumour cells (NCI), 48 h

We go through 14 compounds from ChEMBL document CHEMBL1201862, “PubChem BioAssay data set” (2004).

Each structure is given as a SMILES string.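 Interpolation was linear, between the two tested concentrations surrounding the appropriate level; five concentrations were tested over 48 hours in 96-well plates. GI50 = concentration required for 50% inhibition of growth.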 Calls of active or inactive are those of the source. Rule as the data show it: active = GI50 up to about 1.1 µM and inactive = higher.

As for `Cc1cn([C@@H]2O[C@H](CO[Si](C)(C)C(C)(C)C)[C@]3(O[C@H]3C(=O)NO)[C@H]2O[Si](C)(C)C(C)(C)C)c(=O)[nH]c1=O`, the GI50 with OVCAR-3 was 1.61 µM (inactive); with UACC-257, 2.59 µM (inactive); with CCRF-CEM, 0.634 µM (active); with MOLT-4, 1.73 µM (inactive); with SF-268 it was 1.62 µM (inactive); in the assay on HL-60 it was 1.61 µM (inactive). Moreover, the GI50 in the assay with EKVX is 1.84 µM (inactive); in the assay with HCT-15, 1.87 µM; in the assay on OVCAR-5 it was 1.78 µM (inactive); in the assay on SF-539 it was 1.5 µM (inactive); in the assay with HOP-62, 1.76 µM (inactive); with COLO 205 it was 1.76 µM (inactive). In addition, the GI50 with NCI-H226 was 1.94 µM (inactive); in the assay on SNB-19 it was 1.66 µM (inactive); with OVCAR-4 it was 1.75 µM (inactive); with Malme-3M, 2.14 µM (inactive).
For the compound `S=C1NC2=C(COc3ccccc32)C(c2ccc(Cl)cc2)N1` (stereo not given), the GI50 with OVCAR-3 is 15.3 µM (inactive); in the assay on UACC-257, 21.2 µM (inactive); in the assay on CCRF-CEM, 21.3 µM (inactive); in the assay with MOLT-4, 12.8 µM (inactive); in the assay on SF-268, 17.6 µM (inactive); in the assay on HL-60 it was 13.9 µM (inactive). In addition, the GI50 is 17.1 µM (inactive) in the assay on EKVX; 16.3 µM (inactive) in the assay on OVCAR-5; 16.6 µM (inactive) in the assay on SF-539; 17.1 µM (inactive) in the assay on HOP-62; 18.7 µM (inactive) in the assay with COLO 205; 17.6 µM (inactive) in the assay on NCI-H226. In the assay on SNB-19, the GI50 is 22.9 µM (inactive).
Turning to `COc1cc(C(C)=O)cc(C(=O)N(C(C)C)C(C)C)c1[Si](C)(C)C`, the GI50 in the assay with OVCAR-3 was > 100 µM (inactive); with UACC-257 it was > 100 µM (inactive); with CCRF-CEM, > 100 µM (inactive); in the assay on MOLT-4 it was 79.6 µM (inactive); in the assay with SF-268, > 100 µM (inactive); in the assay with HL-60, 24.3 µM (inactive). The GI50 in the assay on HCT-15 is more than 100 µM; with SF-539, > 100 µM (inactive); in the assay on HOP-62, > 100 µM (inactive); with COLO 205, > 100 µM (inactive); in the assay on NCI-H226, > 100 µM (inactive); in the assay on SNB-19, > 100 µM (inactive). Besides, the GI50 in the assay on OVCAR-4 was > 100 µM (inactive).
Consider `O=C(O)/C=C/c1ccc(Oc2ccccc2C(=O)O)o1`, for which the GI50 is > 10 µM (inactive) in the assay on UACC-257; > 10 µM (inactive) in the assay on CCRF-CEM; > 10 µM (inactive) with MOLT-4; > 10 µM (inactive) in the assay on SF-268; > 10 µM (inactive) in the assay with HL-60; more than 10 µM in the assay with HCT-15. The GI50 in the assay with SF-539, in the assay on SR, in the assay with HOP-62, with COLO 205, with SNB-19 and in the assay on OVCAR-4 was > 10 µM (inactive) each time. Besides, the GI50 in the assay on Malme-3M was > 10 µM (inactive).
With `Cc1[nH]c2ncn3ncnc3c2c1Cc1ccccc1`, the GI50 in the assay on OVCAR-3, with UACC-257, in the assay on CCRF-CEM, in the assay on MOLT-4, in the assay with SF-268 and in the assay on HL-60 was > 100 µM (inactive) each time. For the same compound, the GI50 in the assay on EKVX is > 100 µM (inactive); with HCT-15, more than 100 µM; in the assay with OVCAR-5, > 100 µM (inactive); in the assay with SF-539 it was > 100 µM (inactive); in the assay on HOP-62 it was > 100 µM (inactive); in the assay on COLO 205, > 100 µM (inactive). Also, the GI50 in the assay with NCI-H226, in the assay on SNB-19, in the assay on OVCAR-4 and in the assay with Malme-3M was > 100 µM (inactive) each time.
On to `C[n+]1c2ccccc2n2c3ccccc3c(NCc3ccco3)c(C#N)c21`, for which the GI50 in the assay with OVCAR-3 was 2.7 µM (inactive); with UACC-257, 3.48 µM (inactive); in the assay with MOLT-4, 0.984 µM (active); in the assay on SF-268 it was 2.42 µM (inactive); in the assay on HL-60 it was 3.17 µM (inactive); with EKVX, 2.78 µM (inactive). Also, the GI50 is 1.05 µM in the assay on HCT-15; 2.12 µM (inactive) in the assay with OVCAR-5; 0.959 µM (active) in the assay on SF-539; 1.46 µM (inactive) in the assay on HOP-62; 1.67 µM (inactive) in the assay on COLO 205; 2.23 µM (inactive) in the assay on NCI-H226. For the same compound, the GI50 in the assay on SNB-19 was 3.11 µM (inactive); in the assay with OVCAR-4, 2.82 µM (inactive); with Malme-3M, 2.43 µM (inactive).
As for `c1ccc(Nc2nnc(CCCCCCCCc3nnc(Nc4ccccc4)o3)o2)cc1`, the GI50 with OVCAR-3, in the assay on UACC-257, in the assay with CCRF-CEM, in the assay on MOLT-4, with SF-268 and in the assay with HL-60 was > 100 µM (inactive) each time. Also, the GI50 in the assay with EKVX is > 100 µM (inactive); in the assay on HCT-15, more than 100 µM; with OVCAR-5 it was > 100 µM (inactive); in the assay on SF-539 it was > 100 µM (inactive); in the assay on HOP-62, > 100 µM (inactive); with COLO 205 it was > 100 µM (inactive). Moreover, the GI50 in the assay with NCI-H226, with SNB-19, in the assay with OVCAR-4 and in the assay with Malme-3M was > 100 µM (inactive) in each case.
Regarding `CN(CCc1ccccn1)c1ccc2c(c1)Cc1ccccc1-2`, the GI50 in the assay with OVCAR-3 is 26.1 µM (inactive); in the assay on UACC-257, 26.2 µM (inactive); in the assay with CCRF-CEM, 10.2 µM (inactive); in the assay with MOLT-4, 5.42 µM (inactive); in the assay on SF-268, 6.5 µM (inactive); with HL-60, 20.4 µM (inactive). The GI50 is 16.6 µM (inactive) in the assay on EKVX; 3.43 µM in the assay on HCT-15; 28.4 µM (inactive) in the assay with OVCAR-5; 16.1 µM (inactive) in the assay on HOP-62; 15.7 µM (inactive) in the assay with COLO 205; 14.9 µM (inactive) in the assay with NCI-H226. Besides, the GI50 in the assay with SNB-19 was 19.3 µM (inactive); in the assay on OVCAR-4, 22.5 µM (inactive); in the assay with Malme-3M, 9.68 µM (inactive).
As to `CC(=O)OCC1OC(n2c(C)c(/N=N/c3ccc(Cl)cc3)c(C)c(C#N)c2=S)C(OC(C)=O)C(OC(C)=O)C1OC(C)=O` (stereo not given), the GI50 in the assay with OVCAR-3 was > 100 µM (inactive); in the assay on UACC-257, 62.8 µM (inactive); in the assay with CCRF-CEM it was > 100 µM (inactive); in the assay on MOLT-4, > 100 µM (inactive); in the assay with SF-268, 27.9 µM (inactive); in the assay on HL-60 it was > 100 µM (inactive). Further, the GI50 in the assay with HCT-15 is more than 100 µM; with OVCAR-5 it was 31.8 µM (inactive); in the assay with SF-539, 44.1 µM (inactive); in the assay on SR, > 100 µM (inactive); with HOP-62 it was 22.8 µM (inactive); with COLO 205, > 100 µM (inactive). The GI50 in the assay on SNB-19 is 28.8 µM (inactive); with OVCAR-4, > 100 µM (inactive); in the assay with Malme-3M, > 100 µM (inactive).
`Clc1ccc2c(NCCCC/N=C/c3ccccc3)ccnc2c1`: the GI50 with OVCAR-3 was 16.5 µM (inactive); with UACC-257, 12.3 µM (inactive); with CCRF-CEM, 6.49 µM (inactive); with MOLT-4 it was 2.82 µM (inactive); in the assay on SF-268, 14.2 µM (inactive); with EKVX, 15.5 µM (inactive). Further, the GI50 was 17.8 µM in the assay on HCT-15; 13 µM (inactive) with OVCAR-5; 11.9 µM (inactive) in the assay with SF-539; 10 µM (inactive) in the assay on HOP-62; 4.53 µM (inactive) in the assay with COLO 205; 4.33 µM (inactive) in the assay with NCI-H226. The figures for the GI50 in the assay on SNB-19, in the assay on OVCAR-4 and in the assay with Malme-3M were 14.8 µM (inactive), 10.5 µM (inactive) and 14.4 µM (inactive), respectively.
On to `CC(C)C(=O)/C=C/S/C=C/C(=O)C(C)C`, for which the GI50 in the assay on OVCAR-3 was 3.62 µM (inactive); in the assay on UACC-257 it was 2.72 µM (inactive); with SF-268 it was 26.2 µM (inactive); in the assay with EKVX, 5 µM (inactive); in the assay on HCT-15, 3.2 µM; in the assay on OVCAR-5 it was 5.27 µM (inactive). In addition, the GI50 was 16.8 µM (inactive) with SF-539; 21.2 µM (inactive) in the assay with HOP-62; 2.94 µM (inactive) with COLO 205; 7 µM (inactive) in the assay with NCI-H226; 28.3 µM (inactive) in the assay on SNB-19; 6.17 µM (inactive) in the assay on OVCAR-4. Further, the GI50 in the assay on Malme-3M is 6.7 µM (inactive).
Regarding `O=C(O)C[n+]1cn(NC(=O)Cc2ccccc2)cn1`, the GI50 was > 10 µM (inactive) in the assay on OVCAR-3; > 10 µM (inactive) in the assay with UACC-257; > 10 µM (inactive) in the assay with CCRF-CEM; > 10 µM (inactive) in the assay with MOLT-4; > 10 µM (inactive) with SF-268; 7.16 µM (inactive) with EKVX. For the same compound, the GI50 in the assay with HCT-15 was more than 10 µM; with OVCAR-5, > 10 µM (inactive); in the assay with SF-539, > 10 µM (inactive); in the assay with SR it was > 10 µM (inactive); in the assay on HOP-62, > 10 µM (inactive); in the assay with COLO 205, > 10 µM (inactive). For the same compound, the GI50 in the assay with SNB-19, with OVCAR-4 and in the assay on Malme-3M was > 10 µM (inactive) throughout.
Take `CCCCOC(=O)C(O)Cc1ccoc1` (stereo not given): the GI50 with OVCAR-3, in the assay with CCRF-CEM, with MOLT-4, in the assay with SF-268, with HL-60 and in the assay with EKVX was > 100 µM (inactive) each time. In addition, the GI50 in the assay on HCT-15 was more than 100 µM; in the assay with OVCAR-5, > 100 µM (inactive); in the assay with SF-539, > 100 µM (inactive); in the assay on HOP-62 it was > 100 µM (inactive); with COLO 205 it was > 100 µM (inactive); in the assay with NCI-H226 it was > 100 µM (inactive). Also, the GI50 with SNB-19, in the assay on OVCAR-4 and in the assay with Malme-3M was > 100 µM (inactive) throughout.
For `C[C@]12CC[C@@H]3c4ccc(OP(=O)(O)O)cc4CC[C@H]3[C@@H]1CCC2=O`, the GI50 with OVCAR-3 was 62.8 µM (inactive); with UACC-257, > 100 µM (inactive); in the assay on CCRF-CEM, 27.6 µM (inactive); in the assay on MOLT-4, 54 µM (inactive); with SF-268, > 100 µM (inactive); in the assay with HL-60, 71.4 µM (inactive). Moreover, the GI50 in the assay on EKVX is 42.8 µM (inactive); in the assay with HCT-15, more than 100 µM; in the assay with OVCAR-5, > 100 µM (inactive); in the assay on SF-539, 81.8 µM (inactive); in the assay with HOP-62, > 100 µM (inactive); with COLO 205 it was > 100 µM (inactive). Further, the GI50 in the assay with SNB-19 is > 100 µM (inactive); in the assay with OVCAR-4, 50.9 µM (inactive); in the assay on Malme-3M, > 100 µM (inactive).
